We go through two molecules from publication PMC8348403 (Molecules, 2021).

Structures are written as SMILES. Like-named read-outs stand apart in the source and are kept apart here.

Series [1] can be described thus: Pharmacokinetic study of tamatinib in rats after oral fostamatinib (UPLC-MS/MS of plasma). In kind it is in vivo, Wistar male rats. As to the method: The analysis was performed on Waters® Acquity H-Class UPLC® tandem triple quadrupole mass spectrometer (TQD) (Waters, Milford, USA). The H-Class UPLC® system contained Acquity sample manager and Acquity quaternary solvent manager. TQD was equipped with electrospray ionization (ESI) probe. Samples were detected and quantified in multiple reaction monitoring (MRM) mode. […] Mobile phase composition was 10 mM ammonium acetate and acetonitrile (10:90). The mobile phase was adjusted at 0.25 mL/min. […] Samples were vortex-mixed for 30 s, and 1 mL of MTBE was added. All samples were vortex-mixed for 1 min, then centrifuged at 8 °C for 10 min at 4500 g. After centrifugation, the upper layer was transferred to 2 mL tubes and dried using a vacuum concentrator at 40 °C. The residue was reconstituted with 100 µL of the mobile phase and a volume of 5 µL was injected into the UPLC–MS/MS. Eight Wistar male rats weighing 210 ± 20 g (aged about 2 months) were provided by National Organization for Drug Control and Research, Cairo, Egypt. Rats were placed in cages in optimum conditions of humidity (40–60%) and temperature (22–26 °C) with regular 12 h day-night cycle. No diet was available for animals for 10 h prior and 1 h post drug administration. Water was available ad libitum. Rats were administered orally (using the gavage technique) 12.5 mg/kg (the middle dose used in the work of Clemens et al.) fostamatinib as a suspension in 1% sodium carboxymethylcellulose. Under light anesthesia, blood samples (0.3 mL) were collected from orbital sinus, in heparinized tube, at different time points; 0, 0.5, 1.0, 2.0, 3.0, 4.0, 6.0, 8.0, 12.0, 24.0, and 48.0 h after drug administration. Plasma samples were obtained by centrifugation at 3000 g for 3 min and kept frozen at −80 °C until analysis. Non-compartmental analysis with the trapezoidal rule was used for estimation of pharmacokinetic parameters. These parameters were calculated using WinNonlin software (Pharsight Co., Mountain View, CA, USA).

Series [2] relates to collagen-induced arthritis. More on the design: method as in PMID 17537677. The settings on record: rodents; cited from earlier work.
The format of series [3] is in vitro ADME. The settings on record: rat. As to the method: Short-term stability was evaluated at 22–25 °C for 6 h, which represented the processing time. Autosampler stability at ambient temperature for 24 h, long-term stability (−80 °C for 6 weeks), and three cycles of thaw and freeze (−80 and 25 °C) were evaluated. The actual concentrations of QCs samples (LQC, MQC, and HQC) under the stability test condition were compared against freshly prepared samples. Moreover, stock solution and working solution stability was evaluated at refrigerator temperature (4 °C) for 2 weeks.

The test system of series [4] is experimental nephrotoxic nephritis. Set-up: method as in PMID 19959716. The settings on record: rats; cited from earlier work.
On the set-up of series [5]: method as in PMID 19107952. The settings on record: administration during pregnancy; cited from earlier work.
For series [6], the system named is lung tissue. More on the design: method as in PMID 26148346. The settings on record: treated mice; cited from earlier work.
On the set-up of series [7]: method as in PMID 23190017, PMID 20371637. The settings on record: human intestinal microsomes; in vitro and in humans; cited from earlier work.
Setting [8] is: male, Wistar, rat, plasma, po, 12.5 mg/kg.

`COc1cc(Nc2ncc(F)c(Nc3ccc4c(n3)NC(=O)C(C)(C)O4)n2)cc(OC)c1OC` [Tamatinib, tamatinib]: the AUC(0-inf) (commonly the area under the concentration-time curve extrapolated to infinity) in series [1] (setting [8]) came out at 6420 ± 1500 ng·h/mL. In series [1] (setting [8]), the maximum concentration (Cmax) – broadly, the highest concentration seen after dosing – was found to be 653 ± 70.4 ng/mL. In series [1] (setting [8]), the mean residence time (MRT) (as a rule, the average time that molecules of a dose stay in the body) is 19.8 ± 2.9 h. Besides, the time of peak concentration (Tmax) (commonly the time at which the peak concentration occurs) in series [1] (setting [8]) came to 3 h. Besides, the half-life (in general, how long it takes for the measured level to halve) in series [1] (setting [8]) was 18.3 ± 0.9 h. Moreover, the AUC(0-t) in series [1] (male, Wistar, rat, plasma, po, 12.5 mg/kg, read-out: AUC0–48) amounted to 5640 ± 1210 ng·h/mL. This molecule returned a Clearance in series [1] (tamatinib in plasma, oral fostamatinib 12.5 mg/kg, rats, mean ± SD) of 0.030 ± 0.001 L/h. For the same molecule, the “effect in collagen-induced arthritis” value in series [2] was “progressive improvement in histopathology, clinical scores, and joint radiography”. Further, the Accuracy in series [3] (0.3 ng/mL) is listed as 90.0%; in series [3] (75 ng/mL), 89.9%; in series [3] (750 ng/mL) it was 86.6%; in series [3] (6 weeks, 0.3 ng/mL), 86.7%; in series [3] (6 weeks, 75 ng/mL), 88.1%; in series [3] (6 weeks, 750 ng/mL) it was 85.4%. Also, the Accuracy was determined as 86.7% in series [3] (6 h, 0.3 ng/mL); 86.2% in series [3] (6 h, 75 ng/mL); 85.3% in series [3] (6 h, 750 ng/mL); 86.7% in series [3] (24 h, 0.3 ng/mL); 85.3% in series [3] (24 h, 75 ng/mL); 87.2% in series [3] (24 h, 750 ng/mL). The “Measured Concentration” value is 0.27 ± 0.01 ng/mL in series [3] (0.3 ng/mL); 67.40 ± 2.79 ng/mL in series [3] (75 ng/mL); 649.20 ± 69.95 ng/mL in series [3] (750 ng/mL); 0.26 ± 0.02 ng/mL in series [3] (6 weeks, 0.3 ng/mL); 66.10 ± 7.77 ng/mL in series [3] (6 weeks, 75 ng/mL); 640.60 ± 73.94 ng/mL in series [3] (6 weeks, 750 ng/mL). The “Measured Concentration” value came out at 0.26 ± 0.03 ng/mL in series [3] (6 h, 0.3 ng/mL); 64.65 ± 3.47 ng/mL in series [3] (6 h, 75 ng/mL); 640.10 ± 43.19 ng/mL in series [3] (6 h, 750 ng/mL); 0.26 ± 0.02 ng/mL in series [3] (24 h, 0.3 ng/mL); 64.00 ± 5.11 ng/mL in series [3] (24 h, 75 ng/mL); 654.34 ± 97.10 ng/mL in series [3] (24 h, 750 ng/mL). Besides, the “effect in experimental nephrotoxic nephritis” value in series [4] was “reduced glomerular macrophage infiltration, tissue injury, and proteinuria”.
Regarding `COc1cc(Nc2ncc(F)c(Nc3ccc4c(n3)N(COP(=O)(O)O)C(=O)C(C)(C)O4)n2)cc(OC)c1OC` [fostamatinib, Fostamatinib sodium], in series [5], the developmental toxicity entry is “caused urogenital and cardiovascular abnormalities”. For the same molecule, the “fibrosis and inflammation in lung tissue” value in series [6] was “less fibrosis and inflammation in lung tissue”. Further, in series [7], the transformation to tamatinib entry is “rapidly transformed to tamatinib”.
